Data set [1] deals with Fibroblasts of human origin. The data set can be described thus: Fibroblast cytotoxicity test (MTT). It is filed as cell-based. The following applies: 24 h. The protocol:
A. Fibroblast cytotoxicity test
Test materials: Fibroblasts of human origin (Guangdong Boxi Biotechnology Co., Ltd., Lot No. Fb20081902), DMEM culture medium (Gibco, 23042301, expiration date on 230522), PBS (Solarbio, P1010), MTT (Sigma, M5655), DMSO (Sigma, D4540-1L), CO2 incubator (Thermo, 150I), super-clean bench (AIRTECH, SW-CJ-1F), inverted microscope (Olympus, CKX53).
Test methods: • 1) Cell inoculation: After cell resuscitation, the cells were inoculated into 96-well plates when the plating rate reached around 60%, and were incubated overnight in an incubator (37°C, 5% CO2). • 2) Test grouping: The blank group, solvent control group, positive control group, and sample group were set for the test. In the sample group, 7 concentration gradients were set for each sample and 3 duplicate wells were set for each concentration gradient. • 3) Formulation of solutions: Sample working solutions at different concentrations were formulated based on the test concentrations of 0.0781 µM, 0.1563 µM, 0.3125 µM, 0.625 µM, 1.25 µM, 2.5 µM, and 5 µM. • 4) Administration: Administration was performed when the cell plating rate in the 96-well plates reached 50% to 60%. 200 µL of culture medium per well was added for the solvent control group; 200 µL of culture medium containing 10% DMSO per well was added for the positive control group; 200 µL of culture medium containing the sample at a corresponding concentration per well was added for the sample group; The blank group had no cell inoculation, for which only 200 µL of cell culture medium was added. After the administration was complete, the 96-well plates were incubated in an incubator (37°C, 5% CO2) for 24 h. • 5) Detection: After 24 h of cell incubation and culture, the supernatant was discarded, and MTT working solution (0.5 mg/mL) was added. Incubation was performed at 37°C for 4 h in the dark. After the incubation was completed, the supernatant was discarded and 150 µL DMSO was added to each well. The OD value was read at 490 nm. • 6) Calculation of relative viability of cells: Calculation was performed according to the formula below: Relative viability of cells = (Sample well OD−Blank well OD)/(Solvent control well OD−Blank well OD) × 100%. [formula]

Data set [2] concerns Collagen I (type I collagen). The data set can be described thus: Collagen I elevation effect in fibroblasts (ELISA). It is filed as cell-based, human. Also noted: Collagen I elevation effect in the fibroblasts: unit not given here. The following applies: 1 µM, 24 h; for Collagen I elevation effect in the fibroblasts: ELISA, Blank control (BC) 35.6; for type I collagen (Collagen I) content compared to the BC: result in words. The text has this:
(§1) B. Collagen I (type I collagen) elevation effect in fibroblasts, hyaluronic acid (HA) elevation effect in fibroblasts, and elastin (ELN) elevation effect in fibroblasts
(§2) Test materials: Fibroblasts of human origin (Guangdong Boxi Biotechnology Co., Ltd., Lot No. Fb20081902), DMEM culture medium (Gibco, 23042301, expiration date 230522), PBS (Solarbio, P1010), TGF-β1 (Peprotech, 230504), Collagen I ELISA Kit (Cusabio, B21025824), Elastin ELISA kit (Abcam, GR3446070-2), HA ELISA kit (RD, P325066). CO2 incubator (Thermo, 1501), super-clean bench (AIRTECH, SW-CJ-1F), microplate reader (BioTek, Epoch).
(§3) Test methods: • 1) Inoculation: After cell resuscitation, the cells were inoculated into 6-well plates when the plating rate reached around 60%, and were incubated overnight in an incubator (37°C, 5% CO2). • 2) Formulation of solutions: The cyclic peptide compounds in the sample group, PC2 (Biotinoyl-GHK, [drawing 2] ) and PC3 [drawing 3] in the positive reference group were all at the concentration of 1 µM, and the test substance working solutions were formulated. Only the cell culture medium was added for the blank control group (BC). • 3) Administration: When the cell plating rate in the 6-well plates reached 40% to 60%, administration was performed at 2 mL per well. 3 duplicate wells were set for each group. Incubation was performed in an incubator (37°C, 5% CO2) for 24 h. • 4) ELISA assay: The ELISA assay was performed according to the instructions of the ELISA kit, with the detection indicators being Collagen I elevation effect in the fibroblasts, HA elevation effect in the fibroblasts, and elastin elevation effect in the fibroblasts.
For orientation: ELISA stands for enzyme-linked immunosorbent assay.

For a further data set, the system named is hyaluronic acid (HA). The data set can be described thus: Hyaluronic acid (HA) elevation effect in fibroblasts (ELISA). It is filed as cell-based, human. Also noted: HA elevation effect in the fibroblasts: unit not given here. The following applies: 1 µM, 24 h; for HA elevation effect in the fibroblasts: ELISA, Blank control (BC) 1402.44; for hyaluronic acid (HA) content compared to the BC: result in words.
Text: as §1, §2, §3

A further data set has as its system elastin (ELN). The data set can be described thus: Elastin (ELN) elevation effect in fibroblasts (ELISA). Set-up: Elastin elevation effect in the fibroblasts: unit not given here. It is filed as cell-based, human. The following applies: 1 µM, 24 h; for Elastin elevation effect in the fibroblasts: ELISA, Blank control (BC) 756.52; for elastin content compared to the BC: result in words.
Text: as §1, §2, §3

Where “and” joins values, the source holds several entries; their conditions need not be identical. Equal entries are not always repeated. Residues, ends and D or L forms follow the SMILES beside them.

For `C[S+](C)[O-]` [10% DMSO, DMSO], in data set [1] (Positive control 10% DMSO, 1440 min), the “Relative viability of cells” value is 0.30% and 1.87% and 1.62% and 1.17% and 0.61% and 2.07% and 0.54% and 0.43%.
On to `CC[C@H](C)[C@@H]1NC(=O)[C@H](CCCCN)NC(=O)[C@H](Cc2c[nH]cn2)NC(=O)CNC(=O)[C@@H]2CCCN2C(=O)[C@H](Cc2ccccc2)NC1=O` [compound 214] (cyclo(FPGHKI)), for which, in data set [2], the “Collagen I elevation effect in the fibroblasts” value (shortened to “Collagen I elevation effect”) is recorded as 42.51 and the “type I collagen (Collagen I) content compared to the BC” value (shortened to “type I collagen … compared to the BC”) is “significant increase”. For the same molecule, in the data set with hyaluronic acid (HA), the “HA elevation effect in the fibroblasts” value worked out at 1965.3 and the “hyaluronic acid (HA) content compared to the BC” value is recorded as “significant increase”. In addition, in the data set with elastin (ELN), the “Elastin elevation effect in the fibroblasts” value (“Elastin elevation effect” below) amounted to 1050.82 and the “elastin content compared to the BC” value is “significant increase”.
Take `CC(C)C[C@@H]1NC(=O)[C@H](CCCCN)NC(=O)[C@H](Cc2c[nH]cn2)NC(=O)CNC(=O)[C@@H]2CCCN2C(=O)[C@H](C)NC1=O` [compound 250] (cyclo(APGHKL)): in data set [2], the “Collagen I elevation effect” value is given as 55.85 and the “type I collagen … compared to the BC” value is on record as “significant increase”. Also, in the data set with hyaluronic acid (HA), the “HA elevation effect in the fibroblasts” value turned out to be 2142.56 and the “hyaluronic acid (HA) content compared to the BC” value is listed as “significant increase”. In addition, in the data set with elastin (ELN), the “Elastin elevation effect” value is 1051.64 and the “elastin content compared to the BC” value is “significant increase”.
Consider `CC(C)C[C@@H]1NC(=O)[C@H](CCCCN)NC(=O)[C@H](Cc2c[nH]cn2)NC(=O)CNC(=O)[C@H](C)NC(=O)[C@H](Cc2ccccc2)NC1=O` [compound 289] (cyclo(AGHKLF)), for which, in data set [2], the “Collagen I elevation effect” value worked out at 41 and the “type I collagen … compared to the BC” value is on record as “significant increase”. Moreover, in the data set with hyaluronic acid (HA), the “HA elevation effect in the fibroblasts” value is recorded as 1978.48 and the “hyaluronic acid (HA) content compared to the BC” value was “significant increase”. Moreover, in the data set on elastin (ELN), the “Elastin elevation effect” value is reported as 1034.59 and the “elastin content compared to the BC” value is “significant increase”.
As for `CC(C)C[C@@H]1NC(=O)[C@H](Cc2ccccc2)NC(=O)[C@H](CC(C)C)NC(=O)[C@H](CCCCN)NC(=O)[C@H](Cc2c[nH]cn2)NC(=O)CNC1=O` [compound 292] (cyclo(FLGHKL)), the “Relative viability of cells” value is 107.68% in data set [1] (0.0781 µM, OD 490 nm); 107.63% in data set [1] (0.1563 µM, OD 490 nm); 105.05% in data set [1] (0.3125 µM, OD 490 nm); 102.37% in data set [1] (0.625 µM, OD 490 nm); 102.07% in data set [1] (1.25 µM, OD 490 nm); 102.88% in data set [1] (2.5 µM, OD 490 nm). The “Relative viability of cells” value in data set [1] (5 µM, OD 490 nm) is on record as 102.88%. The “type I collagen … compared to the BC” value in data set [2] is “significant increase”. The “HA elevation effect in the fibroblasts” value with hyaluronic acid (HA) came to 2635.98. In the data set with hyaluronic acid (HA), the “hyaluronic acid (HA) content compared to the BC” value is on record as “significant increase”. In the data set on elastin (ELN), the “Elastin elevation effect” value stood at 1278.99. Besides, the “elastin content compared to the BC” value with elastin (ELN) is recorded as “significant increase”.
Consider `CC(C)C[C@@H]1NC(=O)[C@H](CCCCN)NC(=O)[C@H](Cc2c[nH]cn2)NC(=O)CNC(=O)[C@H](C(C)C)NC(=O)[C@H](Cc2ccccc2)NC1=O` [compound 297] (cyclo(FVGHKL)), for which, in data set [2], the “Collagen I elevation effect” value is given as 52.28 and the “type I collagen … compared to the BC” value is given as “significant increase”. Also, in the data set with hyaluronic acid (HA), the “HA elevation effect in the fibroblasts” value was 2212.6 and the “hyaluronic acid (HA) content compared to the BC” value is “significant increase”. Further, in the data set on elastin (ELN), the “Elastin elevation effect” value stood at 923.52 and the “elastin content compared to the BC” value is on record as “significant increase”.
As for `CC(C)[C@@H]1NC(=O)[C@H](C)NC(=O)[C@H](Cc2ccccc2)NC(=O)[C@H](CCCCN)NC(=O)[C@H](Cc2c[nH]cn2)NC(=O)CNC1=O` [compound 414] (cyclo(AVGHKF)), in data set [2], the “Collagen I elevation effect” value amounted to 40.54 and the “type I collagen … compared to the BC” value is on record as “significant increase”. Besides, in the data set on hyaluronic acid (HA), the “HA elevation effect in the fibroblasts” value was 1926.61 and the “hyaluronic acid (HA) content compared to the BC” value is recorded as “significant increase”. Besides, in the data set with elastin (ELN), the “Elastin elevation effect” value is 1124.58 and the “elastin content compared to the BC” value is on record as “significant increase”.

(Values after patent EP4786484A1, “CYCLIC PEPTIDE COMPOUND AND USE THEREOF” (Shenzhen Zhongge Biological Technology Co., Ltd., priority 2023, dated 2026).)
